Measured values as given in PubChem BioAssay AID200 (DTP/NCI, 2004).
Several values for one entry are separate records, joined by “and”; a condition that tells them apart may be missing. Equal values may be shown once. Toxic doses and inconclusive results are not listed.

Tested on: B6C3F1 mice, B16 melanoma ip, median survival T/C
Experiment: NCI In Vivo Anticancer Drug Screen. Data for tumor model B16 Melanoma (intraperitoneal) in B6C3F1 mice
Details: endpoint: median survival time, higher = longer survival
Procedure, shortened: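 Transplantable tumor in mice; treated vs vehicle control groups; survival or tumor size measured; value = T/C ratio.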

Structure (SMILES): O=C1c2c(O)ccc(O)c2C(=O)c2c(NCCNCCO)ccc(NCCNCCO)c21
- T/C (dose: 0.12 mg/kg/injection, schedule: Q01DX009 (ip), vehicle: water): 111 % of control
- T/C (dose: 0.12 mg/kg/injection, schedule: Q03HX024 (ip), vehicle: acid diluted with saline): 287 % of control
- T/C (dose: 0.13 mg/kg/injection, schedule: Q01DX009 (ip), vehicle: water): 184 % of control
- T/C (dose: 0.25 mg/kg/injection, schedule: Q01DX005 (ip), vehicle: saline): 183 % of control
- T/C (dose: 0.25 mg/kg/injection, schedule: Q01DX005 (iv), vehicle: acid diluted with saline): 102 % of control
- T/C (dose: 0.25 mg/kg/injection, schedule: Q01DX005 (iv), vehicle: saline): 88 % of control
- T/C (dose: 0.25 mg/kg/injection, schedule: Q01DX009 (ip), vehicle: acid diluted with saline): 172 % of control
- T/C (dose: 0.25 mg/kg/injection, schedule: Q01DX009 (ip), vehicle: water): 212 % of control [middle of 4 runs]
- T/C (dose: 0.25 mg/kg/injection, schedule: Q01DX009 (sc), vehicle: acid diluted with saline): 101 % of control
- T/C (dose: 0.25 mg/kg/injection, schedule: Q03HX008 (ip), vehicle: acid diluted with saline): 206 % of control
- T/C (dose: 0.25 mg/kg/injection, schedule: Q03HX024 (ip), vehicle: acid diluted with saline): 292 % of control
- T/C (dose: 0.31 mg/kg/injection, schedule: Q01DX009 (ip), vehicle: water): 168 % of control
- T/C (dose: 0.5 mg/kg/injection, schedule: Q01DX005 (ip), vehicle: saline): 206 % of control
- T/C (dose: 0.5 mg/kg/injection, schedule: Q01DX005 (iv), vehicle: acid diluted with saline): 99 % of control
- T/C (dose: 0.5 mg/kg/injection, schedule: Q01DX005 (iv), vehicle: saline): 93 % of control
- T/C (dose: 0.5 mg/kg/injection, schedule: Q01DX009 (ip), vehicle: acid diluted with saline): 185 % of control
- T/C (dose: 0.5 mg/kg/injection, schedule: Q01DX009 (ip), vehicle: other): 222 % of control
- T/C (dose: 0.5 mg/kg/injection, schedule: Q01DX009 (ip), vehicle: water): 216 % of control and 326 % of control and 337 % of control
- T/C (dose: 0.5 mg/kg/injection, schedule: Q01DX009 (sc), vehicle: acid diluted with saline): 121 % of control
- T/C (dose: 0.5 mg/kg/injection, schedule: Q03HX008 (ip), vehicle: acid diluted with saline): 219 % of control
- T/C (dose: 0.62 mg/kg/injection, schedule: Q01DX009 (ip), vehicle: water): 198 % of control and 234 % of control
- T/C (dose: 1.0 mg/kg/injection, schedule: Q01DX005 (ip), vehicle: saline): 275 % of control
- T/C (dose: 1.0 mg/kg/injection, schedule: Q01DX005 (iv), vehicle: acid diluted with saline): 99 % of control
- T/C (dose: 1.0 mg/kg/injection, schedule: Q01DX005 (iv), vehicle: saline): 105 % of control
- T/C (dose: 1.0 mg/kg/injection, schedule: Q01DX009 (ip), vehicle: acid diluted with saline): 229 % of control
- T/C (dose: 1.0 mg/kg/injection, schedule: Q01DX009 (ip), vehicle: other): 220 % of control
- T/C (dose: 1.0 mg/kg/injection, schedule: Q01DX009 (ip), vehicle: water): 326 % of control [middle of 4 runs]
- T/C (dose: 1.0 mg/kg/injection, schedule: Q01DX009 (oral), vehicle: acid diluted with saline): 103 % of control
- T/C (dose: 1.0 mg/kg/injection, schedule: Q03HX008 (ip), vehicle: acid diluted with saline): 284 % of control
- T/C (dose: 1.0 mg/kg/injection, schedule: Q04DX003 (ip), vehicle: acid diluted with saline): 200 % of control
- T/C (dose: 1.25 mg/kg/injection, schedule: Q01DX009 (ip), vehicle: water): 238 % of control and 252 % of control
- T/C (dose: 2.0 mg/kg/injection, schedule: Q01DX005 (ip), vehicle: saline): 275 % of control
- T/C (dose: 2.0 mg/kg/injection, schedule: Q01DX005 (iv), vehicle: acid diluted with saline): 121 % of control
- T/C (dose: 2.0 mg/kg/injection, schedule: Q01DX005 (iv), vehicle: saline): 100 % of control
- T/C (dose: 2.0 mg/kg/injection, schedule: Q01DX009 (ip), vehicle: acid diluted with saline): 151 % of control
- T/C (dose: 2.0 mg/kg/injection, schedule: Q01DX009 (ip), vehicle: other): 105 % of control
- T/C (dose: 2.0 mg/kg/injection, schedule: Q01DX009 (ip), vehicle: water): 162 % of control and 187 % of control
- T/C (dose: 2.0 mg/kg/injection, schedule: Q01DX009 (oral), vehicle: acid diluted with saline): 102 % of control
- T/C (dose: 2.0 mg/kg/injection, schedule: Q03HX008 (ip), vehicle: acid diluted with saline): 292 % of control
- T/C (dose: 2.0 mg/kg/injection, schedule: Q04DX003 (ip), vehicle: acid diluted with saline): 224 % of control
- T/C (dose: 4.0 mg/kg/injection, schedule: Q01DX001 (ip), vehicle: acid diluted with saline): 200 % of control and 254 % of control
- T/C (dose: 4.0 mg/kg/injection, schedule: Q01DX001 (iv), vehicle: acid diluted with saline): 108 % of control
- T/C (dose: 4.0 mg/kg/injection, schedule: Q01DX009 (ip), vehicle: water): 262 % of control
- T/C (dose: 4.0 mg/kg/injection, schedule: Q01DX009 (oral), vehicle: acid diluted with saline): 96 % of control
- T/C (dose: 4.0 mg/kg/injection, schedule: Q04DX003 (ip), vehicle: acid diluted with saline): 278 % of control
- T/C (dose: 8.0 mg/kg/injection, schedule: Q01DX001 (ip), vehicle: acid diluted with saline): 219 % of control and 260 % of control
- T/C (dose: 8.0 mg/kg/injection, schedule: Q01DX001 (iv), vehicle: acid diluted with saline): 104 % of control
- T/C (dose: 8.0 mg/kg/injection, schedule: Q04DX003 (ip), vehicle: acid diluted with saline): 92 % of control
- T/C (dose: 9.0 mg/kg/injection, schedule: Q01DX001 (ip), vehicle: acid diluted with saline): 245 % of control and 98 % of control
- T/C (dose: 16.0 mg/kg/injection, schedule: Q01DX001 (ip), vehicle: acid diluted with saline): 220 % of control and 292 % of control
- T/C (dose: 18.0 mg/kg/injection, schedule: Q01DX001 (ip), vehicle: acid diluted with saline): 196 % of control
- T/C (dose: 32.0 mg/kg/injection, schedule: Q01DX001 (ip), vehicle: acid diluted with saline): 234 % of control

Structure (SMILES): CCOC(=O)N(CCCCCCNC(c1ccccc1)S(=O)(=O)O)c1ccccc1 (configuration not stated)
- T/C (dose: 25.0 mg/kg/injection, schedule: Q01DX009 (ip), vehicle: Klucel (hydroxypropylcellulose) (HPC)): 96 % of control
- T/C (dose: 50.0 mg/kg/injection, schedule: Q01DX009 (ip), vehicle: Klucel (hydroxypropylcellulose) (HPC)): 100 % of control
- T/C (dose: 100.0 mg/kg/injection, schedule: Q01DX009 (ip), vehicle: Klucel (hydroxypropylcellulose) (HPC)): 100 % of control

Structure (SMILES): O=C1c2cccc3cc([N+](=O)[O-])cc(c23)C(=O)N1CCN1CCCC1
- T/C (dose: 6.25 mg/kg/injection, schedule: Q01DX009 (ip), vehicle: saline with Tween-80): 122 % of control
- T/C (dose: 25.0 mg/kg/injection, schedule: Q01DX009 (ip), vehicle: saline with Tween-80): 108 % of control

Structure (SMILES): CCOC(=O)NC1CCc2cc(OC)c(OC)c(OC)c2-c2ccc(OC)c(=O)cc21 (configuration not stated)
- T/C (dose: 1.5 mg/kg/injection, schedule: Q01DX009 (ip), vehicle: Klucel (hydroxypropylcellulose) (HPC)): 152 % of control
- T/C (dose: 2.5 mg/kg/injection, schedule: Q01DX009 (ip), vehicle: Klucel (hydroxypropylcellulose) (HPC)): 150 % of control and 152 % of control
- T/C (dose: 4.16 mg/kg/injection, schedule: Q01DX009 (ip), vehicle: Klucel (hydroxypropylcellulose) (HPC)): 154 % of control

Structure (SMILES): COc1cccc2c1C(=O)c1c(O)c3c(c(O)c1C2=O)C[C@@](O)(C(=O)CO)C[C@@H]3OC1CC(N2CCOCC2C#N)C(O)C(C)O1 (some centres not stated)
- T/C (dose: 9.38 micrograms/kg/injection, schedule: Q01DX001 (ip), vehicle: water): 156 % of control
- T/C (dose: 18.75 micrograms/kg/injection, schedule: Q01DX001 (ip), vehicle: water): 153 % of control
- T/C (dose: 37.5 micrograms/kg/injection, schedule: Q01DX001 (ip), vehicle: water): 156 % of control

Structure (SMILES): C=C(C)C(=O)OC1C/C(CO)=C\C(O)C/C(C)=C/C2OC(=O)C(=C)C21 (configuration not stated)
- T/C (dose: 1.25 mg/kg/injection, schedule: Q01DX009 (ip), vehicle: saline + alcohol): 101 % of control
- T/C (dose: 2.5 mg/kg/injection, schedule: Q01DX009 (ip), vehicle: saline + alcohol): 100 % of control
- T/C (dose: 5.0 mg/kg/injection, schedule: Q01DX009 (ip), vehicle: saline + alcohol): 114 % of control
- T/C (dose: 10.0 mg/kg/injection, schedule: Q01DX009 (ip), vehicle: saline + alcohol): 112 % of control
